System: Sonic hedgehog signaling
Experiment: Clonal NIH-3T3 line with stably integrated Shh-responsive luciferase reporter (Shh-LIGHT/Shh-LIGHT2), inhibition of Sonic hedgehog induction
Assay type: cell-based, mouse
Conditions: for improvement of inhibitory activity by oxidation of the hydroxyl group to a ketone: versus the corresponding 3-hydroxyl compound (18, 20, 22, 33, 40, 50); for effect of N-alkyl modification on ability to block Shh signaling / effect of addition on inhibitory activity: SAR statement, relative to cyclopamine
From the text: FIG. 2 relates to a sensitive assay for Shh signaling in NIH-3T3 cells. (A) Purification of cholesterol- and palmitate-modified mouse Sonic hedgehog signaling domain ShhNp. Detergent-insoluble proteolipid complexes were isolated from 293 cells expressing full-length Shh (M. K. Cooper, J. A. Porter, K. E. Young, P. A. Beachy, Science 280, 1603 (1998)), and ShhNp was purified to apparent homogeneity by immunoaffinity chromatography. […] We therefore used the detergent insolubility of cholesterol-modified ShhN and affinity chromatography to purify the processed ShhN protein (ShhNp) from a human 293 cell line engineered to express the full length mouse Shh construct. Detergent-insoluble complexes (DIGs) were isolated as described by Brown and Rose (1992), with the following modifications. Cells from a 150 mm dish were lysed and collected in 2 mL of lysis solution (10 mM NaHPO4, pH 6.5, 150 mM NaCl, 0.5 mM PMSF, 1% Triton X-100, 2 μg/ml Pepstatin A, 10 μg/ml leupeptin, 5 μg/ml aprotinin, 2 μg/ml E64) at 4° C. […] Low-density, flocculent material was collected (from original position of 18.125% step), diluted 5-fold in 10 mM NaHPO4, pH 6.5, 150 mM NaCl and harvested by centrifugation at 20,000×g for 15 min (all at 4° C.). […] Mass standards migrated as indicated. […] NIH-3T3 cells cotransfected with Gli-luc reporter and TK promoter-driven Renilla luciferase control were treated with the indicated concentrations of ShhNp for 2 days. Confluent cultures of NIH-3T3 cells were plated at 1:6 dilution to 24 or 96-well plates. On the following day, the cells were transfected with renilla luciferase (pRL-TK or pRL-SV40; Clontech) or β-galactosidase transfection control (10% w/w DNA), Gli-Luc reporter (40%) and the constructs indicated (50%) using Fugene 6 (Roche) transfection reagent (250 ng (24 well plate) or 100 ng (96 well plate) DNA/well, 3:1 ratio (v/w) of reagent to DNA). […] Firefly and Renilla luciferase and β-galactosidase activities were assayed from the cell lysates by luminometry using dual luciferase (Promega) and Galacto-Light (Tropix) kits, respectively. Luciferase activities are normalized relative to control; a representative experiment is shown. […] Error bars indicate one standard deviation. […] Cultures of Shh-LIGHT (open boxes) or SmoA1-LIGHT (filled diamonds) cells were plated to 96-well plates in a series of twofold dilutions. The NIH-3T3 cell clone Shh-LIGHT and Shh-LIGHT2 stably incorporating the Gli-luc reporter and TK-renilla vectors were established by cotransfection with a vector encoding G418 resistance (pSV-Neo), followed by selection with G418 and cell cloning. Subsequently, a clonal subline of Shh-LIGHT expressing activated Smo (SmoA1-LIGHT) was established using an expression vector that allows hygromycin selection (pcDNA3.1+ hygro; Invitrogen). […] The Shh-LIGHT cells were treated with 4 nM ShhNp, and Gli-luciferase reporter activity was assayed after 24 h. Fold induction of the reporter (% of maximum is relative to equally dense Shh-LIGHT control culture) and cell densities (% of maximum Renilla luciferase activity) were measured at the end of the experiment. Error bars indicate one standard deviation (quadruplicate wells).
Relative reporter activity is normalized to maximum. […] Error bars in A and B indicate one standard deviation.

[1] = Mus musculus, NIH3T3, concentration for 50% inhibition of Sonic hedgehog induction, Table II
[2] = concentration for 50% inhibition of Sonic hedgehog induction, Table II

For `CC1=C2C[C@H]3[C@@H](CC=C4C[C@@H](OC(=O)NCCNC(=O)CCc5ccccc5)CC[C@@]43C)[C@@H]2CC[C@]12O[C@@H]1C[C@H](C)CN[C@H]1[C@H]2C` [Compound 8, 3O-dihydrocinnamoylethylenediaminecarbamoyl cyclopamine], the “IC50 relative to cyclopamine (times higher)” value was about 100 times and the “potency relative to cycloposine (3) (times weaker)” value was 10 times.
`CC1=C2C(=O)[C@H]3[C@@H](CC=C4C[C@@H](OC(=O)NCCNC(=O)CCc5ccccc5)CC[C@@]43C)[C@@H]2CC[C@]12O[C@@H]1C[C@H](C)CN[C@H]1[C@H]2C` [Compound 12, 3O-dihydrocinnamoylethylenediaminecarbamoyl jervine] was tested, and the “IC50 relative to cyclopamine (times higher)” value was about 100 times, the “potency relative to cycloposine (3) (times weaker)” value was 10 times and the IC50 [1] was over 10000 nM.
For `CC1=C2C[C@H]3[C@@H](CC=C4C[C@@H](O)CC[C@@]43C)[C@@H]2CC[C@]12O[C@@H]1C[C@H](C)CN(CCNC(=O)CCc3ccccc3)[C@H]1[C@H]2C` [Compound 18, N—(N′-Dihydrocinnamoyl aminoethyl)cyclopamine], the IC50 [1] was over 100 nM.
With `CC1=C2C[C@H]3[C@@H](CC=C4CC(=O)CC[C@@]43C)[C@@H]2CC[C@]12O[C@@H]1C[C@H](C)CN(CCNC(=O)CCc3ccccc3)[C@H]1[C@H]2C` [Compound 19, 3-Keto, N—(N′-dihydrocinnamoylaminoethyl)cyclopamine] the IC50 [1] was over 10 nM and the “improvement of inhibitory activity by oxidation of the hydroxyl group to a ketone” value (“improvement of inhibitory activity” for short) was “approximately two-fold”.
`CC1=C2C[C@H]3[C@@H](CC=C4CC(=O)CC[C@@]43C)[C@@H]2CC[C@]12O[C@@H]1C[C@H](C)CN(CCNC(=O)c3ccc(C(=O)c4ccccc4)cc3)[C@H]1[C@H]2C` [Compound 21, 3-Keto, N—(N′-(4-benzoylbenzoyl)aminoethyl)cyclopamine] was tested, and the IC50 [1] was over 10 nM and the “improvement of inhibitory activity” value was “approximately two-fold”.
`CC1=C2C[C@H]3[C@@H](CC=C4C[C@@H](O)CC[C@@]43C)[C@@H]2CC[C@]12O[C@@H]1C[C@H](C)CN(CCNC(=O)CCCCCCCCCCCNC(=O)C(F)(F)F)[C@H]1[C@H]2C` [Compound 29, N—(N′—(N″-Trifluoroacetyl aminododecanoyl) aminoethyl)cyclopamine] was tested, and the IC50 [1] was over 100 nM, the “effect of N-alkyl modification on ability to block Shh signaling” value (“effect of N-alkyl modification” for short) was “do not significantly diminish” and the “effect of addition on inhibitory activity” value was “accentuate inhibitory activity”.
`CCC(=O)NCCN1C[C@@H](C)C[C@H]2O[C@]3(CC[C@@H]4C(=C3C)C[C@H]3[C@H]4CC=C4C[C@@H](O)CC[C@@]43C)[C@H](C)[C@@H]21` [Compound 30, N—(N′-Propionyl aminoethyl)cyclopamine] showed an IC50 [1] of over 100 nM.
For `CC1=C2C[C@H]3[C@@H](CC=C4C[C@@H](O)CC[C@@]43C)[C@@H]2CC[C@]12O[C@@H]1C[C@H](C)CN(CCNC(=O)CCCCCNC(=O)CCc3ccccc3)[C@H]1[C@H]2C` [Compound 33, N—(N′—(N″-Dihydrocinnamoyl aminocaproyl)aminoethyl)cyclopamine], the “effect of N-alkyl modification” value was “do not significantly diminish”, the “effect of addition on inhibitory activity” value was “accentuate inhibitory activity” and the IC50 [2] was over 10 nM.
For `CC1=C2C[C@H]3[C@@H](CC=C4CC(=O)CC[C@@]43C)[C@@H]2CC[C@]12O[C@@H]1C[C@H](C)CN(CCNC(=O)CCCCCNC(=O)CCc3ccccc3)[C@H]1[C@H]2C` [Compound 34, 3-Keto, N—(N′—(N″-dihydrocinnamoylaminocaproyl)aminoethyl)cyclopamine], the “potency relative to cyclopamine” value was “ten-fold greater”, the IC50 (Mus musculus, NIH3T3, concentration for 50% inhibition of Sonic hedgehog induction) was 30 nM and the IC50 [1] was over 10 nM. For the same compound, the “improvement of inhibitory activity” value was “approximately two-fold”.
With `CC1=C2C[C@H]3[C@@H](CC=C4C[C@@H](O)CC[C@@]43C)[C@@H]2CC[C@]12O[C@@H]1C[C@H](C)CN(CCNC(=O)CCCCCNC(=O)CCCCC3SC[C@@H]4NC(=O)N[C@H]34)[C@H]1[C@H]2C` (stereo partly drawn) [Compound 40, N—(N′—(N″-Biotinoyl aminocaproyl)aminoethyl)cyclopamine] the IC50 [1] was over 100 nM and the “effect of N-alkyl modification” value was “do not significantly diminish”.
In the case of `CC1=C2C[C@H]3[C@@H](CCC4=CC(=O)CC[C@@]43C)[C@@H]2CC[C@]12O[C@@H]1C[C@H](C)CN(CCNC(=O)CCCCCNC(=O)CCCCC3SC[C@@H]4NC(=O)N[C@H]34)[C@H]1[C@H]2C` (stereo partly drawn) [Compound 41, 3-Enone, N—(N′—(N″-Biotinoylaminocaproyl)aminoethyl)cyclopamine], the “effect of enone formation (C5-C6 olefin migrated to C4-C5) on potency” value is reported as “does not appear to affect compound potency”, the IC50 [1] is reported as over 100 nM and the “improvement of inhibitory activity” value is reported as “approximately two-fold”.
`CCC(=O)NCCCCCC(=O)NCCN1C[C@@H](C)C[C@H]2O[C@]3(CC[C@@H]4C(=C3C)C[C@H]3[C@H]4CC=C4C[C@@H](O)CC[C@@]43C)[C@H](C)[C@@H]21` [Compound 42, N—(N′—(N″-Propionyl aminocaproyl)aminoethyl)cyclopamine] showed an IC50 [1] of over 100 nM.
`CC1=CC(C)=[N+]2C1=Cc1ccc(CCC(=O)NCCCCCC(=O)NCCN3C[C@@H](C)C[C@H]4O[C@]5(CC[C@@H]6C(=C5C)C[C@H]5[C@H]6CC=C6C[C@@H](O)CC[C@@]65C)[C@H](C)[C@@H]43)n1[B-]2(F)F` [Compound 43, N—(N′—(N″-BODIPY FL aminocaproyl)aminoethyl)cyclopamine] was tested, and the “effect of N-alkyl modification” value was “do not significantly diminish”, the “effect of addition on inhibitory activity” value was “accentuate inhibitory activity” and the IC50 [2] was over 100 nM.
With `CC(=O)CCC(=O)N[C@@H](Cc1ccc(C(=O)c2ccccc2)cc1)C(=O)NCCN1C[C@@H](C)C[C@H]2O[C@]3(CC[C@@H]4C(=C3C)CC3[C@H]4CC=C4C[C@@H](O)CC[C@@]43C)C(C)[C@@H]21` (stereo partly drawn) [Compound 50, N—(N′—(N″-Levulinoyl(4-benzoylphenylalaminoyl))aminoethyl)cyclopamine] the IC50 [1] was over 1000 nM and the “effect of N-alkyl modification” value was “significantly abrogate biological activity”.
With `CC(=O)CCC(=O)N[C@@H](Cc1ccc(C(=O)c2ccccc2)cc1)C(=O)NCCN1C[C@@H](C)C[C@H]2O[C@]3(CC[C@@H]4C(=C3C)CC3[C@H]4CC=C4CC(=O)CC[C@@]43C)[C@H](C)[C@@H]21` (stereo partly drawn) [Compound 51, 3-Keto N—(N′—(N″-Levulinoyl(4-benzoylphenylalaminoyl))aminoethyl) cyclopamine] the IC50 [1] was over 1000 nM and the “improvement of inhibitory activity” value was “approximately two-fold”.
`CC1=C2C[C@H]3[C@@H](CC=C4C[C@@H](O)CC[C@@]43C)[C@@H]2CC[C@]12O[C@@H]1C[C@H](C)CN(CCNC(=O)C(CCCCNC(=O)CCCCCNC(=O)CCCC[C@@H]3SC[C@@H]4NC(=O)N[C@@H]43)NC(=O)c3ccc(C(=O)c4ccccc4)cc3)[C@H]1[C@H]2C` (stereo partly drawn) [Compound 58, N—(N′—(N″,N′″-(4-Benzoylbenzoyl)(N″″-biotinoylaminocaproyl)lysine)aminoethyl)cyclopamine] was tested, and the IC50 [1] was over 10000 nM.
In the case of “N—(N′—(N″,N′″-(4-Benzoylbenzoyl) (N″″-digoxigenin 3-O-methylcarbonyl aminocaproyl)lysine)aminoethyl)cyclopamine [Compound 57]”, the IC50 [2] is reported as over 10000 nM.
“N—(N′—(N″-Azidoiodophenylpropionyl aminocaproyl)aminoethyl)cyclopamine [Compound 39]” was tested, and the “effect of N-alkyl modification” value was “do not significantly diminish”, the “effect of addition on inhibitory activity” value was “accentuate inhibitory activity” and the IC50 [2] was over 100 nM.

Reference: patent US9440988B2, “Regulators of the hedgehog pathway, compositions and uses related thereto” (John Hopkins University School of Medicine, priority 1008, dated 2016)
